Test results as given in PubChem BioAssay AID248 (DTP/NCI, 2004).
“And” between values parts separate entries of the source, which are not always exact repeats. Equal values may be shown once. Inconclusive results and toxic doses are left out. Rule as the data show it: active = T/C of 150% or more; inactive = T/C below 125%.

System: L1210 leukemia ip in BDF1 mice, survival T/C
Experiment: NCI In Vivo Anticancer Drug Screen. Data for tumor model L1210 Leukemia (intraperitoneal) in B6D2F1 (BDF1) mice
Conditions: endpoint: mean survival time, higher = longer survival
Procedure, shortened: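 In this screen, tumor-bearing mice given compound are compared to those given vehicle, and their survival values are reported as a treated-to-control quotient.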

[1] = dose: 75.0 mg/kg/injection, schedule: Q04DX003 (ip), vehicle: Klucel (hydroxypropylcellulose) (HPC)
[2] = dose: 150.0 mg/kg/injection, schedule: Q04DX003 (ip), vehicle: Klucel (hydroxypropylcellulose) (HPC)
[3] = dose: 300.0 mg/kg/injection, schedule: Q04DX003 (ip), vehicle: Klucel (hydroxypropylcellulose) (HPC)
[4] = dose: 100.0 mg/kg/injection, schedule: Q04DX003 (ip), vehicle: saline with Tween-80
[5] = dose: 200.0 mg/kg/injection, schedule: Q04DX003 (ip), vehicle: saline with Tween-80
[6] = dose: 400.0 mg/kg/injection, schedule: Q04DX003 (ip), vehicle: saline with Tween-80
[7] = dose: 50.0 mg/kg/injection, schedule: Q01DX009 (ip), vehicle: saline with Tween-80
[8] = dose: 100.0 mg/kg/injection, schedule: Q01DX001 (ip), vehicle: saline
[9] = dose: 200.0 mg/kg/injection, schedule: Q01DX001 (ip), vehicle: saline
[10] = dose: 400.0 mg/kg/injection, schedule: Q01DX001 (ip), vehicle: saline
[11] = dose: 100.0 mg/kg/injection, schedule: Q01DX009 (ip), vehicle: Klucel (hydroxypropylcellulose) (HPC)
[12] = dose: 200.0 mg/kg/injection, schedule: Q01DX009 (ip), vehicle: Klucel (hydroxypropylcellulose) (HPC)
[13] = dose: 400.0 mg/kg/injection, schedule: Q01DX009 (ip), vehicle: Klucel (hydroxypropylcellulose) (HPC)
[14] = dose: 100.0 mg/kg/injection, schedule: Q04DX003 (ip), vehicle: Klucel (hydroxypropylcellulose) (HPC)
[15] = dose: 200.0 mg/kg/injection, schedule: Q04DX003 (ip), vehicle: Klucel (hydroxypropylcellulose) (HPC)
[16] = dose: 400.0 mg/kg/injection, schedule: Q04DX003 (ip), vehicle: Klucel (hydroxypropylcellulose) (HPC)
[17] = dose: 100.0 mg/kg/injection, schedule: Q04DX002 (ip), vehicle: saline with Tween-80
[18] = dose: 200.0 mg/kg/injection, schedule: Q04DX002 (ip), vehicle: saline with Tween-80

Measured: T/C

c1ccc2sc(SSN3CCSCC3)nc2c1
inactive: [1] 102 % of control | dose: 100.0 mg/kg/injection, schedule: Q01DX001 (ip), vehicle: other 98 % of control | [2] 100 % of control | dose: 200.0 mg/kg/injection, schedule: Q01DX001 (ip), vehicle: other 92 % of control | [3] 89 % of control | dose: 400.0 mg/kg/injection, schedule: Q01DX001 (ip), vehicle: other 97 % of control

CC(C)Cc1ccc(N=Nc2ccccc2)cc1
inactive: [4] 93 % of control | [5] 93 % of control | [6] 88 % of control

OC1C(Cl)(Cl)CCCC1(Cl)Cl
inactive: [7] 90 % of control | dose: 100.0 mg/kg/injection, schedule: Q01DX009 (ip), vehicle: saline with Tween-80 94 % of control | dose: 200.0 mg/kg/injection, schedule: Q01DX009 (ip), vehicle: saline with Tween-80 98 % of control

CC(O)C(O)C(O)CO (configuration not stated)
inactive: [8] 96 % of control | [9] 111 % of control | [10] 94 % of control

O=S(=O)(Oc1ccc(Cl)cc1Cl)c1ccc(Cl)cc1
inactive: [1] 93 % of control | [2] 101 % of control | [3] 90 % of control

COc1cc2c(c3oc(=O)ccc13)C(=O)CC(C)(C)O2
inactive: [11] 95 % of control | dose: 100.0 mg/kg/injection, schedule: Q04DX003 (ip), vehicle: saline 96 % of control | [12] 91 % of control | dose: 200.0 mg/kg/injection, schedule: Q04DX003 (ip), vehicle: saline 102 % of control | [13] 95 % of control | dose: 400.0 mg/kg/injection, schedule: Q04DX003 (ip), vehicle: saline 98 % of control

COc1ccc(CN2CCCN(Cc3ccc(OC)cc3OC)C2c2ccc(N(C)C)cc2Cl)c(OC)c1
inactive: dose: 50.0 mg/kg/injection, schedule: Q01DX001 (ip), vehicle: saline 97 % of control | [8] 101 % of control | [9] 95 % of control | [10] 95 % of control

Clc1ccc(C(c2ccc(Cl)cc2)C(Cl)Cl)cc1
inactive: [14] 98 % of control | [15] 98 % of control | [16] 98 % of control

COC(=O)CC1=C(C)CCc2cc3c(cc21)sc1ccccc13
inactive: [8] 94 % of control | [9] 94 % of control | [10] 101 % of control

Oc1ccc2ccccc2c1N=Nc1ccc(F)cc1
inactive: dose: 25.0 mg/kg/injection, schedule: Q01DX015 (ip), vehicle: saline 101 % of control | dose: 50.0 mg/kg/injection, schedule: Q01DX015 (ip), vehicle: saline 96 % of control | dose: 60.0 mg/kg/injection, schedule: Q01DX015 (ip), vehicle: carboxymethylcellulose (CMC) 109 % of control | dose: 100.0 mg/kg/injection, schedule: Q01DX001 (ip), vehicle: carboxymethylcellulose (CMC) 92 % of control | dose: 100.0 mg/kg/injection, schedule: Q01DX009 (ip), vehicle: carboxymethylcellulose (CMC) 95 % of control | dose: 100.0 mg/kg/injection, schedule: Q01DX015 (ip), vehicle: saline 96 % of control | dose: 100.0 mg/kg/injection, schedule: Q04DX003 (ip), vehicle: carboxymethylcellulose (CMC) 114 % of control | dose: 120.0 mg/kg/injection, schedule: Q01DX015 (ip), vehicle: carboxymethylcellulose (CMC) 104 % of control | dose: 200.0 mg/kg/injection, schedule: Q01DX001 (ip), vehicle: carboxymethylcellulose (CMC) 92 % of control | dose: 200.0 mg/kg/injection, schedule: Q01DX009 (ip), vehicle: carboxymethylcellulose (CMC) 95 % of control | dose: 200.0 mg/kg/injection, schedule: Q01DX015 (ip), vehicle: saline 101 % of control | dose: 200.0 mg/kg/injection, schedule: Q04DX003 (ip), vehicle: carboxymethylcellulose (CMC) 97 % of control | dose: 240.0 mg/kg/injection, schedule: Q01DX015 (ip), vehicle: carboxymethylcellulose (CMC) 95 % of control | dose: 400.0 mg/kg/injection, schedule: Q01DX001 (ip), vehicle: carboxymethylcellulose (CMC) 89 % of control | dose: 400.0 mg/kg/injection, schedule: Q01DX015 (ip), vehicle: saline 101 % of control | dose: 400.0 mg/kg/injection, schedule: Q04DX003 (ip), vehicle: carboxymethylcellulose (CMC) 100 % of control | dose: 480.0 mg/kg/injection, schedule: Q01DX015 (ip), vehicle: carboxymethylcellulose (CMC) 96 % of control

CCCCOP(=O)(Nc1ccc([N+](=O)[O-])cc1)OCCCC
inactive: [17] 101 % of control | [18] 94 % of control | dose: 400.0 mg/kg/injection, schedule: Q04DX002 (ip), vehicle: saline with Tween-80 90 % of control

CC(NCCOc1ccccc1)c1ccccc1 (configuration not stated)
inactive: [17] 108 % of control | [18] 105 % of control

CCOP(=S)(OCC)SCc1ccc(C)cc1
inactive: [4] 98 % of control | [5] 103 % of control | [6] 110 % of control

COc1c(N)cc2c(c1C)OC(C)(C)C=C2
inactive: dose: 25.0 mg/kg/injection, schedule: Q01DX009 (ip), vehicle: saline with Tween-80 109 % of control | [7] 101 % of control | [4] 101 % of control and 94 % of control | [5] 100 % of control

O=C(Nc1ccc(C2=NCCCN2)cc1)Nc1ccc(C2=NCCCN2)cc1
inactive: dose: 0.31 mg/kg/injection, schedule: Q01DX Z (ip), vehicle: saline 94 % of control | dose: 0.63 mg/kg/injection, schedule: Q01DX Z (ip), vehicle: saline 110 % of control | dose: 1.25 mg/kg/injection, schedule: Q01DX Z (ip), vehicle: saline 114 % of control and 119 % of control | dose: 2.5 mg/kg/injection, schedule: Q01DX Z (ip), vehicle: saline 114 % of control | dose: 4.4 mg/kg/injection, schedule: Q01DX Z (ip), vehicle: saline 96 % of control

Nc1nccc2snnc12
inactive: dose: 100.0 mg/kg/injection, schedule: Q01DX001 (ip), vehicle: Klucel (hydroxypropylcellulose) (HPC) 91 % of control | [14] 94 % of control | dose: 200.0 mg/kg/injection, schedule: Q01DX001 (ip), vehicle: Klucel (hydroxypropylcellulose) (HPC) 89 % of control | [15] 104 % of control | dose: 400.0 mg/kg/injection, schedule: Q01DX001 (ip), vehicle: Klucel (hydroxypropylcellulose) (HPC) 97 % of control | [16] 100 % of control

CSc1nn(C)c2cc(C)c3ccccc3[n+]12
inactive: dose: 5.0 mg/kg/injection, schedule: Q01DX001 (ip), vehicle: saline 108 % of control | dose: 10.0 mg/kg/injection, schedule: Q01DX001 (ip), vehicle: saline 106 % of control | dose: 20.0 mg/kg/injection, schedule: Q01DX001 (ip), vehicle: saline 103 % of control | dose: 40.0 mg/kg/injection, schedule: Q01DX001 (ip), vehicle: saline 100 % of control

CC(=O)Nc1cc([N+](=O)[O-])ccc1CC(O)c1ccccc1Cl (configuration not stated)
inactive: [11] 92 % of control | [14] 97 % of control | [12] 103 % of control | [15] 108 % of control | [13] 104 % of control | [16] 103 % of control

COc1ccccc1-n1c(=O)c(N=Nc2ccc(Cl)cc2)c(O)n(-c2ccccc2C)c1=S
inactive: [1] 94 % of control | [2] 107 % of control | [3] 104 % of control
